# Measured values as given in patent US5030635A, “6-7-dimethoxy-1,2-dihydro-2-arylquinazoline-3-oxides” (Ortho Pharmaceutical Corporation, priority 1990, dated 1991).
# What was measured:
# [1] = tested on: ovalbumin-induced bronchoconstriction; assay: Active Lung Anaphylaxis (inhibition of ovalbumin-induced bronchoconstriction); type: in vivo, male Harley guinea pigs; details: prior to ovalbumin provocation, actively sensitized guinea pigs, percent inhibition of control
# Procedure: Pharmacological Activity--Active Lung Anaphylaxis
# Using the procedures described by Ritchie, D. M. et al., Agents and Actions 11, 4 (1981), male Harley guinea pigs were actively sensitized, intraperitoneally, with 16 mg alum and 1 mg ovalbumin. Fourteen days later, these animals were anesthetized and their respiration arrested by the administration of succinylcholine. Respiration was maintained at a constant pressure by a miniature Starling pump. Lung overflow changes in pressure were recorded.
# Animals were pretreated with indomethacin (10 mg/kg, i.v.), atropine (0.5 mg/kg, i.v.), methysergide (0.1 mg/kg, i.v.), methapyrilene (2.0 mg/kg, i.v.) and arachidonic acid (5.0 mg/kg, i.v.) prior to ovalbumin challenge. […] Indications of drug efficacy were manifested as a substantial reduction in the degree of bronchoconstriction evidenced by control animals.
# Bronchoconstriction induced by ovalbumin was measured as a percent of maximum bronchoconstriction (BC) obtained by clamping off the trachea. Percent inhibition of control was determined as follows: [formula]
# [2] = tested on: myocardial contractile force; assay: Acute In Vivo Cardiotonic Evaluation (myocardial contractile force); parameters: species or system adult mongrel dogs; details: Canis lupus familiaris, iv, i.v. infusion, anesthetized dogs, vs pretreatment control values, read-out: % Increase In Myocardial Contractile force; for change in vivo at 8.75 mg/kg: 8.75 mpk; for change in vivo at 1.87 mg/kg: 1.87 mpk
# Procedure: Pharmacological Activity--Acute In Vivo Cardiotonic Evaluation
# Using the procedures described by Alousi, A. A. et al., Circ. Res. 45, 666 (1979), adult mongrel dogs were anesthetized with sodium pentobarbital, and artificially respirated. Arterial pressure was recorded via a femoral artery and the pressure pulse was used to trigger a cardiotachometer for heart rate. Left ventricular pressure was measured with a Millar catheter, and dP/dt was derived. Cardiac output was determined by measuring ascending aortic blood flow with an electromagnetic flow probe, and the myocardial contractile force (CF) was measured with a Walton Brodie strain gauge sutured to the right ventricle. Lead II EKG was also recorded.
# A standard dose of dopamine or dobutamine was administered in order to assess myocardial responsiveness. The test compounds were then administered by i.v. infusion and the effects on cardiovascular parameters were determined. The dose of each example compound was either 1.87 mg/kg or 8.75 mg/kg as set forth below in Table 1.
# The dose related effects of the compound on myocardial contractile force was compared to pretreatment control values, expressed as a % change and rated for activity. Statistical evaluations were made using the appropriate parametric test against a vehicle control.
SMILES,% Inhibition of Bronchoconstriction at 50 mpk [1] [%],change in vivo at 8.75 mg/kg [2] [%],change in vivo at 1.87 mg/kg [2] [%]
"COc1cc2c(cc1OC)C(C)=[N+]([O-])C(c1ccccc1)N2 (stereo not drawn) [Example 1, 1,2-Dihydro-2-phenyl-4-methyl-6,7-dimethoxy-quinazoline-3-oxide]",60.9,157,
"COc1cc2c(cc1OC)C(C)=[N+]([O-])C(c1ccc(Cl)cc1)N2 (stereo not drawn) [Example 2, 1,2-Dihydro-2-(4-chlorophenyl)-4-methyl-6,7-dimethoxyquinazoline-3-oxide]",,50,
"COc1ccc(C2Nc3cc(OC)c(OC)cc3C(C)=[N+]2[O-])cc1 (stereo not drawn) [Example 3, 1,2-Dyhydro-2-(4-methoxyphenyl)-4-methyl-6,7-dimethoxyquinazoline-3-oxide]",,,29
"COc1cc2c(cc1OC)C(C)=[N+]([O-])C(c1ccc(C)cc1)N2 (stereo not drawn) [Example 4, 1,2-Dihydro-2-(4-tolyl)-4-methyl-6,7-dimethoxy-quinazoline-3-oxide]",71.9,,42
"COc1cc2c(cc1OC)C(C)=[N+]([O-])C(c1ccc3c(c1)OCO3)N2 (stereo not drawn) [Example 5, 1,2-Dihydro-2-(3,4-methylenedioxyphenyl)-4-methyl-6,7-dimethoxyquinazoline-3-oxide]",,124,
"COc1cc2c(cc1OC)C(C)=[N+]([O-])C(c1cccc3c1OCO3)N2 (stereo not drawn) [Example 6, 1,2-Dihydro-2-(2,3-methylenedioxyphenyl)-4-methyl-6,7-dimethoxyquinazoline-3-oxide]",,45,
"COc1cc2c(cc1OC)C(C)=[N+]([O-])C(c1cccc(OCc3ccccc3)c1)N2 (stereo not drawn) [Example 7, 1,2-Dihydro-2-(3-benzyloxyphenyl)-4-methyl-6,7-dimethoxyquinazoline-3-oxide]",49.5,20,
"COc1cc2c(cc1OC)C(C)=[N+]([O-])C(c1c(F)c(F)c(F)c(F)c1F)N2 (stereo not drawn) [Example 8, 1,2-Dihydro-2-pentafluorophenyl-4-methyl-6,7-dimethoxyquinazoline-3-oxide]",27.3,,33
"COc1cc2c(cc1OC)C(C)=[N+]([O-])C(c1ccco1)N2 (stereo not drawn) [Example 9, 1,2-Dihydro-2-(2-furyl)-4-methyl-6,7-dimethoxyquinazoline-3-oxide]",,123,
"COc1cc2c(cc1OC)C(C)=[N+]([O-])C(c1cccs1)N2 (stereo not drawn) [Example 10, 1,2-Dihydro-2-(2-thienyl)-4-methyl-6,7-dimethoxyquinazoline-3-oxide]",,75,
"COc1cc2c(cc1OC)C(C)=[N+]([O-])C(c1cccn1C)N2 (stereo not drawn) [Example 11, 1,2-Dihydro-2-(2-(N-methyl)pyrrolo)-4-methyl-6,7-dimethoxyquinazoline-3-oxide]",,,29
"COc1cc2c(cc1OC)C(C)=[N+]([O-])C(c1ccccn1)N2 (stereo not drawn) [Example 12, 1,2-Dihydro-2-(2-pyridyl)-4-methyl-6,7-dimethoxyquinazoline-3-oxide]",37.9,45,
"COc1cc2c(cc1OC)C(C)=[N+]([O-])C(c1ccncc1)N2 (stereo not drawn) [Example 13, 1,2-Dihydro-2-(4-pyridyl)-4-methyl-6,7-dimethoxyquinazoline-3-oxide]",,29,
